Assays:
Test in all cases: relative viability (nuclei count vs DMSO), 5 days (fraction); higher = more cells survive
[1] = compound: O=C(Nc1cccc(C(F)(F)F)c1)Nc1cc(S(=O)(=O)NC2CC2)ccc1-c1ccsc1 [AGI-6780] + N=C(N)NC(=N)NCCc1ccccc1 [Phenformin] (partner 250 µM)
How it was run: (§1)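 Five library-drug doses in √10 steps were combined with a fixed anchor-drug dose, or a single drug was given alone, by pin tool to lung cancer cell lines in 1536-well plates the day after seeding. Nuclei were stained and counted after 5 days. Relative viability is the nuclei count in treated wells over that in vehicle wells, taken as the median of duplicate plates.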

[2] = compound: O=C(Nc1cccc(C(F)(F)F)c1)Nc1cc(S(=O)(=O)NC2CC2)ccc1-c1ccsc1 [AGI-6780] + Cc1nc(NC(=O)N2CCC[C@H]2C(N)=O)sc1-c1ccnc(C(C)(C)C(F)(F)F)c1 [Alpelisib] (partner 2 µM)
How it was run: as §1

[3] = compound: O=C(Nc1cccc(C(F)(F)F)c1)Nc1cc(S(=O)(=O)NC2CC2)ccc1-c1ccsc1 [AGI-6780] + NC(=O)Nc1cc(-c2cccc(F)c2)sc1C(=O)N[C@H]1CCCNC1 [AZD7762] (partner 0.2 µM)
How it was run: as §1

[4] = compound: O=C(Nc1cccc(C(F)(F)F)c1)Nc1cc(S(=O)(=O)NC2CC2)ccc1-c1ccsc1 [AGI-6780] + CS(=O)(=O)N1CCN(Cc2cc3nc(-c4cccc5[nH]ncc45)nc(N4CCOCC4)c3s2)CC1 [Pictilisib] (partner 1 µM)
How it was run: as §1

| Cell Line | relative viability ([1]; first compound 0.08 µM) | relative viability ([1]; first compound 0.253 µM) | relative viability ([1]; first compound 0.8 µM) | relative viability ([1]; first compound 2.53 µM) | relative viability ([1]; first compound 8 µM) | relative viability ([2]; first compound 0.08 µM) | relative viability ([2]; first compound 0.253 µM) | relative viability ([2]; first compound 0.8 µM) | relative viability ([2]; first compound 2.53 µM) | relative viability ([2]; first compound 8 µM) | relative viability ([3]; first compound 0.253 µM) | relative viability ([3]; first compound 0.8 µM) | relative viability ([3]; first compound 2.53 µM) | relative viability ([3]; first compound 8 µM) | relative viability ([4]; first compound 0.08 µM) | relative viability ([4]; first compound 0.253 µM) | relative viability ([4]; first compound 0.8 µM) | relative viability ([4]; first compound 2.53 µM) | relative viability ([4]; first compound 8 µM) | relative viability ([3]; first compound 0.08 µM) |
| --- | --- | --- | --- | --- | --- | --- | --- | --- | --- | --- | --- | --- | --- | --- | --- | --- | --- | --- | --- | --- |
| PC-3 [JPC-3] | 0.51 | 0.483 | 0.479 | 0.502 | 0.496 | 1.02 | 1.02 | 0.976 | 0.983 | 1.02 | 0.758 | 0.984 | 0.877 | 0.729 | 0.767 | 0.78 | 0.819 | 0.687 | 0.691 | – |
| PC-14 | 0.464 | 0.665 | 0.576 | 0.581 | 0.695 | 0.947 | 0.986 | 0.944 | 0.913 | 0.961 | 0.33 | 0.453 | 0.455 | 0.397 | 0.927 | 0.681 | 0.893 | 0.55 | 0.857 | 0.355 |
| RERF-LC-KJ | 0.421 | 0.455 | 0.439 | 0.367 | 0.411 | 0.784 | 0.824 | 0.779 | 0.672 | 0.75 | 0.811 | 1.04 | 0.777 | 0.952 | 0.559 | 0.537 | 0.604 | 0.418 | 0.467 | 0.853 |
